The source of these data is publication PMC9146896, “Uracil as a Zn-Binding Bioisostere of the Allergic Benzenesulfonamide in the Design of Quinoline–Uracil Hybrids as Anticancer Carbonic Anhydrase Inhibitors” (Pharmaceuticals, 2022).

“And” between values parts separate entries of the source, which are not always exact repeats. Equal values may be shown once. Read-outs that look alike come from different tables or passages of the source.

The subject of series [1] is Bax. The series can be described thus: Assessment of apoptotic marker levels: Bax in A549. It is filed as cell-based. The text has this:
(§1) The two cytoplasmic proteins, B-cell lymphoma protein 2 (Bcl-2) and its associated X protein (Bax), are essential for apoptosis in normal cells. Bax is a promoter and Bcl-2 is an inhibitor of apoptosis. Thus, the effect of 10d and 10l on apoptotic markers Bax and Bcl-2 in a breast cancer cell line (MCF-7) and a lung cancer cell line (A549) has been estimated.

Series [2] has as its target T1, hCA II (Homo sapiens, UniProt P00918). The series can be described thus: Carbonic anhydrase inhibition, colorimetric method (BioVision CA Inhibitor Screening Kit).
The test system of series [3] is lung cancer cell line (A549). The series can be described thus: Antiproliferative activity, MTT assay under hypoxic conditions. The following applies: Homo sapiens, read-out: Cytotoxicity IC50 A549. It is filed as cell-based.
For series [4], the system named is Bcl-2. The series can be described thus: Assessment of apoptotic marker levels: Bcl-2 in A549. It is filed as cell-based.
Excerpt: as §1

The target in series [5] is T2, hCA XII (Homo sapiens, UniProt O43570). The series can be described thus: Carbonic anhydrase inhibition, colorimetric method (BioVision CA Inhibitor Screening Kit). The following applies: for Selectivity index I/XII: hCA XII over hCA I; for Selectivity index II/XII: hCA XII over hCA II.
Series [6] relates to Bax. Briefly: Assessment of apoptotic marker levels: Bax in MCF-7. It is filed as cell-based.
Excerpt: as §1

Series [7] deals with Bcl-2. The series can be described thus: Assessment of apoptotic marker levels: Bcl-2 in MCF-7. It is filed as cell-based.
Excerpt: as §1

The target of series [8] is T3, hCA I (Homo sapiens, UniProt P00915). The series can be described thus: Carbonic anhydrase inhibition, colorimetric method (BioVision CA Inhibitor Screening Kit).
The target of series [9] is T4, hCA IX (Homo sapiens, UniProt Q16790). The series is described as above. To be noted: for Selectivity index I/IX: hCA IX over hCA I; for Selectivity index II/IX: hCA IX over hCA II.
Series [10] relates to breast cancer cell line (MCF-7). The series can be described thus: Antiproliferative activity, MTT assay under hypoxic conditions. To be noted: Homo sapiens, MCF7, read-out: Cytotoxicity IC50 MCF7.
Series [11] concerns the target T4, hCA IX. Also on record: method as in PMID 34681794. The following applies: cited from earlier work.
Series [12] deals with T2, hCA XII. Further details: method as in PMID 34681794. To be noted: cited from earlier work.
Series [13] deals with T1, hCA II. To be noted: range, quinoline-based sulfonamides; cited from earlier work.
In series [14] the target is T3, hCA I. The following applies: range, quinoline-based sulfonamides; cited from earlier work.

T3 sequence (P00915 whole entry): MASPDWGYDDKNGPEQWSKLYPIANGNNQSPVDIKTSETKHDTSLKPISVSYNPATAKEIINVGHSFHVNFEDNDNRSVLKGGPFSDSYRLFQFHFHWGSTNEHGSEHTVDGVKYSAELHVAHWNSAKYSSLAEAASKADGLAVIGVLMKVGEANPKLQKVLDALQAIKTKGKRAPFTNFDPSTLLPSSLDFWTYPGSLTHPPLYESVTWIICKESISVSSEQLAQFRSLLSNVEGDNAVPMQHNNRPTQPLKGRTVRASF
T2 sequence (O43570 25-354): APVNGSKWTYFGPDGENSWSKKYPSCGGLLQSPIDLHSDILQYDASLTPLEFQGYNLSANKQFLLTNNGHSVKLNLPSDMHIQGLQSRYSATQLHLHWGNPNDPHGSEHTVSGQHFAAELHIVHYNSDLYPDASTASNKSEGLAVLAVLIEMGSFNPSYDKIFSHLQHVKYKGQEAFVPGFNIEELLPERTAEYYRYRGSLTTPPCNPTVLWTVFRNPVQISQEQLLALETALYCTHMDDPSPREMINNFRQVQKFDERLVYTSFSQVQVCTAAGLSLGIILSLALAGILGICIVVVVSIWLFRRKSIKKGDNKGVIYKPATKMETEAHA

`Cn1c(N)c(/N=C/c2cc3ccccc3[nH]c2=O)c(=O)[nH]c1=O` [Compound 10d, (E)-6-Amino-1-methyl-5-(((2-oxo-1,2-dihydroquinolin-3-yl)methylene)amino) pyrimidine-2,4(1H,3H)-dione] had a melting point of 298 to 300 °C. Besides, in [1], the Bax is recorded as 278.6 ± 9.14 pg/mL and the “Bax level relative to the control” value is reported as “nearly six-fold”. In series [2], this molecule yielded an IC50 of 260 nM and a Ki of 140 nM. The IC50 in series [3] worked out at 11800 ± 220 nM. Also, in series [4], the Bcl2 turned out to be 2.841 ± 0.01 nm/mL and the “Bcl-2 level in comparison with the control” value (“Bcl-2 level in comparison” below) is “downregulated”. In series [5], 190 nM corresponded to half-maximal inhibition (IC50), affinity was put at a Ki of 110 nM, the “Selectivity index I/XII” value stood at 1.24 and the “Selectivity index II/XII” value turned out to be 1.37. Further, in [6], the Bax was determined as 403.1 ± 4.69 pg/mL and the “Bax level relative to the control” value was “nearly six-fold”. In addition, in series [7], the Bcl2 was found to be 2.587 ± 0.03 nm/mL and the “Bcl-2 level in comparison” value is listed as “downregulated”. In series [8], this molecule showed a half-maximal inhibitory concentration (IC50) of 230 nM and a Ki of 130 nM. Further, in series [9], the IC50 worked out at 220 nM; the affinity, expressed as Ki, was 120 nM; the “Selectivity index I/IX” value was found to be 1.09; the “Selectivity index II/IX” value is listed as 1.21. For the same molecule, the half-inhibitory concentration (IC50) in series [10] turned out to be 2870 ± 50 nM.

Take `COc1ccc2[nH]c(=O)c(/C=N/c3c(N)n(C)c(=S)[nH]c3=O)cc2c1` [Compound 10l, (E)-3-(((6-Amino-1-methyl-4-oxo-2-thioxo-1,2,3,4-tetrahydropyrimidin-5-yl)imino)methyl)-6-methoxyquinolin-2(1H)-one]: the melting point is 295 to 297 °C. Moreover, in series [1], the Bax was found to be 208.4 ± 4.07 pg/mL and the “Bax level relative to the control” value is listed as “nearly six-fold”. In [2], this molecule came in with a 50% inhibitory concentration (IC50) of 1880 nM and an inhibition constant (Ki) of 1040 nM. In addition, in series [3], the IC50 is 26100 ± 560 nM. For the same molecule, in series [4], the Bcl2 is 4.605 ± 0.28 nm/mL and the “Bcl-2 level in comparison” value was “downregulated”. In addition, in series [5], half-maximal inhibition (IC50) was put at 190 nM; the affinity, expressed as Ki, was 110 nM; the “Selectivity index I/XII” value turned out to be 1.29; the “Selectivity index II/XII” value came out at 9.75. Moreover, in [6], the Bax was 337.2 ± 7.55 pg/mL and the “Bax level relative to the control” value is “nearly six-fold”. Also, in series [7], the Bcl2 was determined as 3.296 ± 0.09 nm/mL and the “Bcl-2 level in comparison” value was “downregulated”. Further, in series [8], half-maximal inhibition (IC50) required 250 nM and the affinity, expressed as Ki, was 140 nM. In series [9], the midpoint of inhibition, the IC50, lay at 140 nM; the inhibition constant Ki was found to be 80 nM; the “Selectivity index I/IX” value stood at 1.75; the “Selectivity index II/IX” value is on record as 13.20. Also, the IC50 in series [10] was 4080 ± 80 nM.

With `NS(=O)(=O)c1cc(Nc2ccnc3ccc(Cl)cc23)ccc1Cl` [Compound II], the Ki is 18.6 nM and 19 nM in series [11]; 9 nM in [12].

In the case of `CCOC(=O)c1cnc2cc(Cl)c(F)cc2c1Nc1cccc(S(N)(=O)=O)c1` [Compound I], the Ki was 83 to 3590 nM in [13]; 966 to 9090 nM and 960 to 9090 nM in series [14].

As a reminder, the IC50 is the midpoint of a concentration-inhibition curve. By Ki is commonly meant the equilibrium dissociation constant of an inhibitor or competing ligand from its target. By melting point is commonly meant the temperature, or range, at which the solid turns liquid.
